Assay [1] addresses T1, MlotiK1 CNB domain T284S/V288S/A352D mutant (Mesorhizobium japonicum, UniProt Q98GN8, A352D/T284S/V288S).
T1 sequence (Q98GN8 211-355 T284S/V288S/A352D limits assumed): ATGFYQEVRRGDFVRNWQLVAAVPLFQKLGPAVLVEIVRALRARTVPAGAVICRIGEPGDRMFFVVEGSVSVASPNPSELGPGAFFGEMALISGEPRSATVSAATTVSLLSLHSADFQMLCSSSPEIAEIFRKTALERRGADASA
Briefly: 8-NBD cAMP fluorescence binding/competition assay. The arrangement: species or system Mesorhizobium loti. The following applies: for coupling energy for the combination of T284S with V288S/A352D: mutant cycle analysis of ligand binding.

The target of assay [2] is MlotiK1 CNB domain wild type (Mesorhizobium japonicum, UniProt Q98GN8). As to the kind of experiment: 8-NBD cAMP fluorescence binding/competition assay. The arrangement: species or system Mesorhizobium loti.
Assay [3] deals with T2, MlotiK1 CNB domain V288S/A352D mutant (Mesorhizobium japonicum, UniProt Q98GN8, A352D/V288S).
T2 sequence (Q98GN8 211-355 V288S/A352D limits assumed): T1 sequence (Q98GN8 211-355 T284S/V288S/A352D limits assumed) with S74T
As to the kind of experiment: 8-NBD cAMP fluorescence competition binding assay. The following applies: for coupling energy between V288S and A352D: double mutant cycle analysis of ligand binding. Also on record: species or system Mesorhizobium loti.

For assay [4], the target named is T284S/V288S/A352D MlotiK1 potassium channel (Mesorhizobium japonicum, UniProt Q98GN8, A352D/T284S/V288S). Briefly: 86Rb+ uptake assay in proteoliposomes. Format: biochemical, Mesorhizobium loti. Conditions: Hill fit.
Assay [5] relates to olfactory CNG channel, threonine at C-terminal end of PBC mutated to alanine. The following applies: threonine to alanine mutant; ref Altenhofen et al., 1991; cited from earlier work.
In assay [6] the target is MlotiK1 CNB domain A352D mutant (Mesorhizobium japonicum, UniProt Q98GN8, A352D). As to the kind of experiment: 8-NBD cAMP fluorescence competition binding assay. Also on record: species or system Mesorhizobium loti.
Assay [7] addresses MlotiK1 CNB domain R348Q mutant (Mesorhizobium japonicum, UniProt Q98GN8, R348Q). Briefly: 8-NBD cAMP fluorescence competition binding assay. The arrangement: species or system Mesorhizobium loti. The following applies: affinities (Kd), range stated over R348N, R348Q and R348K for cAMP and cGMP.
Assay [8] has as its target MlotiK1 CNB domain V288A mutant (Mesorhizobium japonicum, UniProt Q98GN8, V288A). As to the kind of experiment: 8-NBD cAMP fluorescence competition binding assay. The arrangement: species or system Mesorhizobium loti.
For assay [9], the target named is MlotiK1 CNB domain V288S/A352S mutant (Mesorhizobium japonicum, UniProt Q98GN8, A352S/V288S). Briefly: 8-NBD cAMP fluorescence competition binding assay. The arrangement: species or system Mesorhizobium loti.
Assay [10] addresses MlotiK1 CNB domain M299Q mutant (Mesorhizobium japonicum, UniProt Q98GN8, M299Q). As to the kind of experiment: 8-NBD cAMP fluorescence competition binding assay. The arrangement: species or system Mesorhizobium loti.
Assay [11] concerns the target MlotiK1 CNB domain A352S mutant (Mesorhizobium japonicum, UniProt Q98GN8, A352S). Briefly: 8-NBD cAMP fluorescence competition binding assay. Also on record: species or system Mesorhizobium loti. The following applies: competition with 50 nM 8-NBD cAMP, constant ligand, variable protein, room temperature, pH 7.5.
Assay [12] addresses MlotiK1 CNB domain M299C mutant (Mesorhizobium japonicum, UniProt Q98GN8, M299C). Briefly: 8-NBD cAMP fluorescence competition binding assay. Also on record: species or system Mesorhizobium loti.
In assay [13] the target is MlotiK1 CNB domain T284N mutant (Mesorhizobium japonicum, UniProt Q98GN8, T284N). Briefly: 8-NBD cAMP fluorescence competition binding assay. Also on record: species or system Mesorhizobium loti.
Assay [14] has as its target MlotiK1 CNB domain R348A mutant (Mesorhizobium japonicum, UniProt Q98GN8, R348A). As to the kind of experiment: 8-NBD cAMP fluorescence competition binding assay. Conditions: modified titration. The arrangement: species or system Mesorhizobium loti.
Assay [15] deals with MlotiK1 CNB domain V288I mutant (Mesorhizobium japonicum, UniProt Q98GN8, V288I). As to the kind of experiment: 8-NBD cAMP fluorescence competition binding assay. The arrangement: species or system Mesorhizobium loti.
Assay [16] deals with MlotiK1 CNB domain T284Q mutant (Mesorhizobium japonicum, UniProt Q98GN8, T284Q). As to the kind of experiment: 8-NBD cAMP fluorescence competition binding assay. Also on record: species or system Mesorhizobium loti.
In assay [17] the target is MlotiK1 CNB domain R348N mutant (Mesorhizobium japonicum, UniProt Q98GN8, R348N). As to the kind of experiment: 8-NBD cAMP fluorescence competition binding assay. Also on record: species or system Mesorhizobium loti. The following applies: affinities (Kd), range stated over R348N, R348Q and R348K for cAMP and cGMP.
Assay [18] concerns the target MlotiK1 CNB domain R348K mutant (Mesorhizobium japonicum, UniProt Q98GN8, R348K). As to the kind of experiment: 8-NBD cAMP fluorescence competition binding assay. The arrangement: species or system Mesorhizobium loti. The following applies: affinities (Kd), range stated over R348N, R348Q and R348K for cAMP and cGMP.
Assay [19] addresses MlotiK1 CNB domain T284S mutant (Mesorhizobium japonicum, UniProt Q98GN8, T284S). As to the kind of experiment: 8-NBD cAMP fluorescence competition binding assay. Also on record: species or system Mesorhizobium loti.
For assay [20], the target named is MlotiK1 CNB domain V288L mutant (Mesorhizobium japonicum, UniProt Q98GN8, V288L). As to the kind of experiment: 8-NBD cAMP fluorescence competition binding assay. The arrangement: species or system Mesorhizobium loti.
For assay [21], the target named is MlotiK1 CNB domain V282L mutant (Mesorhizobium japonicum, UniProt Q98GN8, V282L). As to the kind of experiment: 8-NBD cAMP fluorescence competition binding assay. Also on record: species or system Mesorhizobium loti.
The subject of assay [22] is bovine rod photoreceptor CNG channel. Conditions: ref Altenhofen et al., 1991; cited from earlier work.
For assay [23], the system named is bovine olfactory CNG channel. Conditions: ref Altenhofen et al., 1991; cited from earlier work.
Assay [24] addresses MlotiK1 CNB domain V288S mutant (Mesorhizobium japonicum, UniProt Q98GN8, V288S). Briefly: 8-NBD cAMP fluorescence competition binding assay. The arrangement: species or system Mesorhizobium loti.
In assay [25] the target is MlotiK1 CNB domain R348Y mutant (Mesorhizobium japonicum, UniProt Q98GN8, R348Y). As to the kind of experiment: 8-NBD cAMP fluorescence competition binding assay. The arrangement: species or system Mesorhizobium loti. Conditions: modified titration.
In assay [26] the test system is CNB β domain from the cGMP-dependent protein kinase I. The following applies: ref Huang et al., 2014; cited from earlier work.

Residue numbers refer to the chain shown, from its start.

Sequence of MlotiK1 CNB domain wild type (Q98GN8 211-355 limits assumed): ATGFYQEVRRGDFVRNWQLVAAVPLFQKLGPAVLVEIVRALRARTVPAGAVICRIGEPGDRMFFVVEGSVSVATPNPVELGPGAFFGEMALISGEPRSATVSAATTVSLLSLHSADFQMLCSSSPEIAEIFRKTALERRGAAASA
Sequence of MlotiK1 CNB domain V288S mutant (Q98GN8 211-355 V288S limits assumed): as the sequence (Q98GN8 211-355 limits assumed) above, with V78S counted along it
Sequence of T284S/V288S/A352D MlotiK1 potassium channel (Q98GN8 whole entry T284S/V288S/A352D): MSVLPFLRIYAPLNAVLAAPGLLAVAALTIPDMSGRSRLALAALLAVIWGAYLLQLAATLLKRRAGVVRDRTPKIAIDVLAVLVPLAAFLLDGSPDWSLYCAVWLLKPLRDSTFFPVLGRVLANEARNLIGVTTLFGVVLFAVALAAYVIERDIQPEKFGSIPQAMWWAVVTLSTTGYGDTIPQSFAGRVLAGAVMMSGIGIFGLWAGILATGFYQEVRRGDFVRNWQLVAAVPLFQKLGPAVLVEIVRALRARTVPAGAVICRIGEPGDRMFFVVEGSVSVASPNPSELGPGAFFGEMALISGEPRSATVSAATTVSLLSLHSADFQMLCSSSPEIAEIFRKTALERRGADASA
Sequence of MlotiK1 CNB domain V282L mutant (Q98GN8 211-355 V282L limits assumed): as the sequence (Q98GN8 211-355 limits assumed) above, with V72L counted along it
Sequence of MlotiK1 CNB domain M299Q mutant (Q98GN8 211-355 M299Q limits assumed): as the sequence (Q98GN8 211-355 limits assumed) above, with M89Q counted along it
Sequence of MlotiK1 CNB domain R348A mutant (Q98GN8 211-355 R348A limits assumed): as the sequence (Q98GN8 211-355 limits assumed) above, with R138A counted along it
Sequence of MlotiK1 CNB domain A352D mutant (Q98GN8 211-355 A352D limits assumed): as the sequence (Q98GN8 211-355 limits assumed) above, with A142D counted along it
Sequence of MlotiK1 CNB domain T284N mutant (Q98GN8 211-355 T284N limits assumed): as the sequence (Q98GN8 211-355 limits assumed) above, with T74N counted along it
Sequence of MlotiK1 CNB domain T284Q mutant (Q98GN8 211-355 T284Q limits assumed): as the sequence (Q98GN8 211-355 limits assumed) above, with T74Q counted along it
Sequence of MlotiK1 CNB domain T284S mutant (Q98GN8 211-355 T284S limits assumed): as the sequence (Q98GN8 211-355 limits assumed) above, with T74S counted along it
Sequence of MlotiK1 CNB domain V288A mutant (Q98GN8 211-355 V288A limits assumed): as the sequence (Q98GN8 211-355 limits assumed) above, with V78A counted along it
Sequence of MlotiK1 CNB domain A352S mutant (Q98GN8 211-355 A352S limits assumed): as the sequence (Q98GN8 211-355 limits assumed) above, with A142S counted along it
Sequence of MlotiK1 CNB domain V288L mutant (Q98GN8 211-355 V288L limits assumed): as the sequence (Q98GN8 211-355 limits assumed) above, with V78L counted along it
Sequence of MlotiK1 CNB domain R348Q mutant (Q98GN8 211-355 R348Q limits assumed): as the sequence (Q98GN8 211-355 limits assumed) above, with R138Q counted along it
Sequence of MlotiK1 CNB domain R348N mutant (Q98GN8 211-355 R348N limits assumed): as the sequence (Q98GN8 211-355 limits assumed) above, with R138N counted along it
Sequence of MlotiK1 CNB domain R348K mutant (Q98GN8 211-355 R348K limits assumed): as the sequence (Q98GN8 211-355 limits assumed) above, with R138K counted along it
Sequence of MlotiK1 CNB domain V288I mutant (Q98GN8 211-355 V288I limits assumed): as the sequence (Q98GN8 211-355 limits assumed) above, with V78I counted along it
Sequence of MlotiK1 CNB domain R348Y mutant (Q98GN8 211-355 R348Y limits assumed): as the sequence (Q98GN8 211-355 limits assumed) above, with R138Y counted along it
Sequence of MlotiK1 CNB domain V288S/A352S mutant (Q98GN8 211-355 V288S/A352S limits assumed): as the sequence (Q98GN8 211-355 limits assumed) above, with V78S, A142S counted along it
Sequence of MlotiK1 CNB domain M299C mutant (Q98GN8 211-355 M299C limits assumed): as the sequence (Q98GN8 211-355 limits assumed) above, with M89C counted along it

`Nc1ncnc2c1nc(SCCNc1ccc([N+](=O)[O-])c3nonc13)n2[C@@H]1O[C@@H]2COP(=O)(O)O[C@H]2[C@H]1O` [8-NBD cAMP]: the values for the Kd in assay [1] and in assay [2] were 2000 nM and 171 ± 20 nM, respectively.
In the case of `Nc1ncnc2c1ncn2[C@@H]1O[C@@H]2COP(=O)(O)O[C@H]2[C@H]1O` [cAMP], the “coupling energy for the combination of T284S with V288S/A352D” value in assay [1] worked out at 0.14 ± 0.19 kcal/mol. The “coupling energy between V288S and A352D” value in [3] is -0.78 ± 0.18 kcal/mol. In assay [4], the Hill coefficient is given as 0.84. In assay [5], the “preference for cAMP” value is reported as 3.3 fold.
In the case of `Nc1nc2c(ncn2[C@@H]2O[C@@H]3COP(=O)(O)O[C@H]3[C@H]2O)c(=O)[nH]1` [cGMP], the Kd is 336 ± 126 nM in assay [1]; 850 ± 121 nM in assay [6]; 16000 to 46000 nM in [7]; 2540 nM in [8]; 749 ± 75 nM in assay [9]; 11600 nM in assay [10]. The Kd was 727 ± 160 nM in assay [11]; 2940 nM in assay [12]; 6560 nM in assay [13]; 39000 ± 2500 nM in assay [14]; 797 ± 118 nM in assay [15]; 6950 nM in assay [16]. For the same compound, the Kd was 351 ± 95 nM in assay [3]; 16000 to 46000 nM in assay [17]; 16000 to 46000 nM in assay [18]; 2980 nM in [19]; 996 ± 163 nM in assay [20]; 8950 nM in [21]. The figures for the Kd in assay [2], in assay [24] and in [25] were 1730 nM, 2100 nM and 33000 ± 4800 nM, respectively. The “coupling energy for the combination of T284S with V288S/A352D” value in assay [1] was -0.34 ± 0.29 kcal/mol. The “coupling energy between V288S and A352D” value in [3] is -0.64 ± 0.20 kcal/mol. The “change in ligand-binding energy by V288S when combined with A352D” value in assay [3] (mutant cycle, relative to A352D) is -0.52 ± 0.18 kcal/mol. Also, the Hill coefficient in assay [4] was 1.3. The “sensitivity to cGMP relative to cAMP (ratio of the K1/2 for channel activation)” value in [22] and in assay [23] was about 40 times each time. Moreover, the “change in ligand-binding energy by V288S alone” value in [24] (mutant cycle, relative to wild type) came out at 0.12 ± 0.10 kcal/mol. In addition, the “selectivity for cGMP over cAMP” value in assay [26] is recorded as about 250 times.

These data come from article PMC4076524 (The Journal of General Physiology, 2014).
